{"source": "paper PMC4022547", "about": "(Molecular Brain, 2014)", "key": {"hα6(N46K) + hβ4 nAChR": {"target": "hα6(N46K) + hβ4 nAChR (Homo sapiens, UniProt P30926+Q15825, N46K)", "conditions": "100 μM nicotine; oocytes clamped at −70 mV", "experimental": "(§1) We planned to introduce identical amounts of cRNA, presumably producing equal amounts of each subunit protein, into oocytes largely due to lack of information about the levels of mRNA for each subunits that compose α6*-nAChRs in neurons or other cells. Concentrations of cRNAs for each nAChR α and β subunits (WT, mutant or variant) were adjusted to 500 ng μL^−1. We provisionally assumed that hα6 or its variants in association with hβ2 or hβ4 subunits would form complexes having 2:3 and/or 3:2 ratios of the indicated subunits and that oocytes also injected with WT or mutant form of β3 subunits (i.e., β3^V9’S) would express nAChR with 2:2:1 ratios of α:β:(β3 or β3^V9’S) subunits. For expression of binary nAChRs (i.e., two subunit containing nAChRs; α + β but not β3) cRNA mixtures were prepared by mixing 1 μL of cRNA for each subunit and an additional μL of RNAse free water (i.e., total volume 3 μL). Similarly for expression of ternary nAChRs [i.e., three subunit containing nAChRs; (α + β) + (β3 or β3^V9’S)] cRNA mixtures were prepared by mixing 1 μL of cRNA for each subunit. Several preparations of each mixture were prepared and stored at −80°C until further use. Injection of 138 nL of cRNA, out of 3 μL cRNA mixtures, into each oocyte would deliver ~23 ng of cRNA for each subunit whether binary or ternary nAChRs are expressed.\n(§2) Two to 5 days after injection, oocytes were placed in a small-volume chamber and continuously perfused with OR2. The chamber was grounded through an agarose bridge. The oocytes were voltage-clamped at −70 mV (unless otherwise noted) to measure agonist or antagonist induced currents using Axoclamp 900A and pClamp 10.2 software (Molecular Devices, Sunnyvale, CA). The current signal was low-pass filtered at 10 Hz with the built-in low-pass Bessel filter in the Axoclamp 900A and digitized at 20 Hz with Axon Digidata1440A and pClamp10. […] Drugs (agonists and antagonists) were prepared daily in OR2. Drug was applied using a Valvelink 8.2 perfusion system (Automate scientific, Berkeley, CA). […] Then for the purpose of comparison electrophysiological recordings were performed in a given day in a given batch of oocytes following the same order of injections. […] All hβ4*-nAChR recordings were done in similar conditions to facilitate comparisons between hα6hβ4- and hα6hβ4hβ3-nAChRs. All electrophysiological measurements were conducted or checked in at least two batches of oocytes.\n(§3) Raw data was collected and processed in part using pClamp 10.2 (Molecular Devices, Sunnyvale, CA), Origin 7.5 (OriginLab Corporation, Northampton, MA) and a spreadsheet (Excel; Microsoft, Bellevue, WA). Peak current amplitudes (Imax) are reported as mean ± SEM (for results from at least three oocytes, i.e., n = 3)."}, "[1]": {"target": "hα6(S156R) + WT hβ2 + hβ3^V9’S nAChR (Homo sapiens, UniProt P17787+Q15825, S156R)", "conditions": "nicotine", "experimental": "as §1, §2, §3"}, "hα6(S43P) + hβ4 nAChR": {"target": "hα6(S43P) + hβ4 nAChR (Homo sapiens, UniProt P30926+Q15825, S43P)", "sequence (Q15825 26-494 S43P)": "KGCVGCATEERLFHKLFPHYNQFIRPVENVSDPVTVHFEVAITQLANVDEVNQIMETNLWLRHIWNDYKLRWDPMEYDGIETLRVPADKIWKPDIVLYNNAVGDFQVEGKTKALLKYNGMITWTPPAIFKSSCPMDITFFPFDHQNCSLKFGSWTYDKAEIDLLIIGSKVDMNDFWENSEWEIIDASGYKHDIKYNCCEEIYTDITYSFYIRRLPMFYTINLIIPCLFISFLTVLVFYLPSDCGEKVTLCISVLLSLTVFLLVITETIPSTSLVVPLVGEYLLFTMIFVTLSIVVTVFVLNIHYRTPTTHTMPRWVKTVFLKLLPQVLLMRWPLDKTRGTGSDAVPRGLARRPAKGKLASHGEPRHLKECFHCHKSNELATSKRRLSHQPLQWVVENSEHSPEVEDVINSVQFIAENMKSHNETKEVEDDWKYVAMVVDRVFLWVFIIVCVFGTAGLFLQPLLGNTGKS", "sequence (P30926 22-498)": "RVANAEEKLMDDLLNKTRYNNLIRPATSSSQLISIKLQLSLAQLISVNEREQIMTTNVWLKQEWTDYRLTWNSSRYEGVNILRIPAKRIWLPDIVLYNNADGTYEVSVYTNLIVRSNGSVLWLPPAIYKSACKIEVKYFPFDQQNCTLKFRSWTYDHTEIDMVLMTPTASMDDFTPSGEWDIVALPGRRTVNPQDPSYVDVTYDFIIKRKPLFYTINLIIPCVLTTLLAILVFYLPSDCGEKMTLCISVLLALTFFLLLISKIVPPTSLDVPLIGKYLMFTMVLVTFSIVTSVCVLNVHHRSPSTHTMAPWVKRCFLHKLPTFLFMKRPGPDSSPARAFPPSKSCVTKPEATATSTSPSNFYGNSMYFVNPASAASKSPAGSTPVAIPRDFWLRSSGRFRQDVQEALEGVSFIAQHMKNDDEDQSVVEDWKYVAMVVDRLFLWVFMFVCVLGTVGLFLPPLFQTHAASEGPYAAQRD", "conditions": "100 μM nicotine; oocytes clamped at −70 mV", "experimental": "as §1, §2, §3"}, "[2]": {"target": "hα6(I226T) + WT hβ2 + hβ3^V9’S nAChR (Homo sapiens, UniProt P17787+Q15825, I226T)", "sequence (Q15825 26-494 I226T)": "as the sequence (Q15825 26-494 S43P) above, with P18S, I201T counted along it", "sequence (P17787 26-502)": "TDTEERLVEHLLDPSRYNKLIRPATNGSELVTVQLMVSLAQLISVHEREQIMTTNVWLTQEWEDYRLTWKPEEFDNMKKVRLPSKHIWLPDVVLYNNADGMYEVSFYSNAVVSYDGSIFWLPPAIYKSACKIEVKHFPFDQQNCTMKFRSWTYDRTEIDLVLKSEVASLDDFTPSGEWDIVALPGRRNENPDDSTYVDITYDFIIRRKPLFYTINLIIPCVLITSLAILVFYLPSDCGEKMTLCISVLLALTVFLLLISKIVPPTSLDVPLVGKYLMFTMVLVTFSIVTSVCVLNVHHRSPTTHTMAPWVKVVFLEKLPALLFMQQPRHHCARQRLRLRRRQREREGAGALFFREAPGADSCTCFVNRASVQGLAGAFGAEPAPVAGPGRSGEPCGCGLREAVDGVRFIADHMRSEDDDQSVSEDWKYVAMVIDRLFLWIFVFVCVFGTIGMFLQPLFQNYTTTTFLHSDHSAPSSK", "sequence (Q05901 25-458 V273S partner limits assumed)": "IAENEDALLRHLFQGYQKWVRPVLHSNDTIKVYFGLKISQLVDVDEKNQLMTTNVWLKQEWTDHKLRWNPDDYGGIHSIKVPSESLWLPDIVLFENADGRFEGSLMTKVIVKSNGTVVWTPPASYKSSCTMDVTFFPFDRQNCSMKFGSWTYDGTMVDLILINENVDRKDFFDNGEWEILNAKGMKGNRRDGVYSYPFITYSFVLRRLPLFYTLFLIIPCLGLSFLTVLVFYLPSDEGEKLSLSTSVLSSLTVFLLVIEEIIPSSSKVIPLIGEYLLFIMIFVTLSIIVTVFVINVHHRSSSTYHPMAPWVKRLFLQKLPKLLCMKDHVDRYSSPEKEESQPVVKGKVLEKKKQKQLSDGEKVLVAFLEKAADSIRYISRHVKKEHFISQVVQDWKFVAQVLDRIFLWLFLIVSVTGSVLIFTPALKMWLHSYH", "conditions": "100 μM nicotine", "experimental": "as §1, §2, §3"}, "hα6(E101K) + hβ4 nAChR": {"target": "hα6(E101K) + hβ4 nAChR (Homo sapiens, UniProt P30926+Q15825, E101K)", "conditions": "100 μM nicotine; oocytes clamped at −70 mV", "experimental": "as §1, §2, §3"}, "[3]": {"target": "hα6(S156R) + hβ4 + hβ3 nAChR (Homo sapiens, UniProt P30926+Q15825, S156R)", "conditions": "nicotine", "experimental": "as §1, §2, §3"}, "[4]": {"target": "hα6(A112V) + codon optimized hβ2 + hβ3^V9’S nAChR (Homo sapiens, UniProt P17787+Q15825, A112V)", "conditions": "100 μM nicotine; oocytes clamped at −70 mV", "experimental": "as §1, §2, §3"}, "[5]": {"target": "hα6(E101K) + hβ4 + hβ3 nAChR (Homo sapiens, UniProt P30926+Q15825, E101K)", "conditions": "100 μM nicotine; oocytes clamped at −70 mV", "experimental": "as §1, §2, §3"}, "[6]": {"target": "hα6(N171K) + WT hβ2 + hβ3^V9’S nAChR (Homo sapiens, UniProt P17787+Q15825, N171K)", "sequence (Q15825 26-494 N171K)": "as the sequence (Q15825 26-494 S43P) above, with P18S, N146K counted along it", "sequence (P17787 26-502)": "as the sequence (P17787 26-502) above", "conditions": "nicotine", "experimental": "as §1, §2, §3"}, "[7]": {"target": "hα6(S43P) + codon optimized hβ2 + hβ3^V9’S nAChR (Homo sapiens, UniProt P17787+Q15825, S43P)", "conditions": "100 μM nicotine; oocytes clamped at −70 mV", "experimental": "as §1, §2, §3"}, "[8]": {"target": "hα6(D57N) + WT hβ2 + hβ3^V9’S nAChR (Homo sapiens, UniProt P17787+Q15825, D57N)", "conditions": "nicotine", "experimental": "as §1, §2, §3"}, "[9]": {"target": "hα6(N203T) + hβ4 + hβ3 nAChR (Homo sapiens, UniProt P30926+Q15825, N203T)", "conditions": "100 μM nicotine; oocytes clamped at −70 mV", "experimental": "as §1, §2, §3"}, "hα6(A112V) + hβ4 nAChR": {"target": "hα6(A112V) + hβ4 nAChR (Homo sapiens, UniProt P30926+Q15825, A112V)", "conditions": "100 μM nicotine; oocytes clamped at −70 mV", "experimental": "as §1, §2, §3"}, "[10]": {"target": "hα6 + codon optimized hβ2 + hβ3^V9’S nAChR (Homo sapiens, UniProt P17787+Q15825)", "sequence (Q15825 26-494)": "as the sequence (Q15825 26-494 S43P) above, with P18S counted along it", "sequence (P17787 26-502)": "as the sequence (P17787 26-502) above", "sequence (Q05901 22-458 V273S partner)": "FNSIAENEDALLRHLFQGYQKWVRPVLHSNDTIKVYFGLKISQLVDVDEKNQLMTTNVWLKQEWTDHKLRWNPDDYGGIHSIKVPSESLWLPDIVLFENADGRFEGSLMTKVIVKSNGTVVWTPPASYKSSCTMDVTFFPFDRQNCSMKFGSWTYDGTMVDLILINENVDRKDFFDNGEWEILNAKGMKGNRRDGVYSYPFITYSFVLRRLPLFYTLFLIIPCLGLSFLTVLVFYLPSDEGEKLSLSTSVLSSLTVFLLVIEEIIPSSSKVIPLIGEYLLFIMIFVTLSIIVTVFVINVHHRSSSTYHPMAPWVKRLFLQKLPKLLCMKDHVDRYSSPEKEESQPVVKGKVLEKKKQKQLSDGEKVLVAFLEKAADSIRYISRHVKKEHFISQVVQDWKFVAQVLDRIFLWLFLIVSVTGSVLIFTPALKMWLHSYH", "conditions": "100 μM nicotine", "experimental": "as §1, §2, §3"}, "[11]": {"target": "hα6(D92E) + hβ4 + hβ3 nAChR (Homo sapiens, UniProt P30926+Q15825, D92E)", "conditions": "100 μM nicotine; oocytes clamped at −70 mV", "experimental": "as §1, §2, §3"}, "[12]": {"target": "hα6(N46K) + codon optimized hβ2 + hβ3^V9’S nAChR (Homo sapiens, UniProt P17787+Q15825, N46K)", "conditions": "100 μM nicotine; oocytes clamped at −70 mV", "experimental": "as §1, §2, §3"}, "[13]": {"target": "hα6(D92E) + codon optimized hβ2 + hβ3^V9’S nAChR (Homo sapiens, UniProt P17787+Q15825, D92E)", "conditions": "100 μM nicotine; oocytes clamped at −70 mV", "experimental": "as §1, §2, §3"}, "[14]": {"target": "hα6(I226T) + codon optimized hβ2 + hβ3^V9’S nAChR (Homo sapiens, UniProt P17787+Q15825, I226T)", "conditions": "100 μM nicotine; oocytes clamped at −70 mV", "experimental": "as §1, §2, §3"}}}
{"smiles": "CN1CCC[C@H]1c1cccnc1", "note": "[nicotine, L-nicotine]", "values": [{"measurement": "peak current (Imax, mean ± SE)", "setting": "hα6(N46K) + hβ4 nAChR", "value": "78 ± 11", "unit": "nA"}, {"measurement": "current response", "setting": "[1]", "value": "did not yield current responses"}, {"measurement": "peak current (Imax, mean ± SE)", "setting": "hα6(S43P) + hβ4 nAChR", "value": "39 ± 5", "unit": "nA"}, {"measurement": "peak current response", "setting": "[2]; 3 days after cRNA injection", "value": "15-30 nA"}, {"measurement": "Mean (±SEM) current response", "setting": "[2]; 5 days after injection", "value": "123 ± 40", "unit": "nA"}, {"measurement": "peak current (Imax, mean ± SE)", "setting": "hα6(E101K) + hβ4 nAChR", "value": "73 ± 10", "unit": "nA"}, {"measurement": "current response", "setting": "[3]", "value": "did not elicit current responses"}, {"measurement": "peak current (Imax, mean ± SE)", "setting": "[4]", "value": "293 ± 24", "unit": "nA"}, {"measurement": "Mean (±SE) peak current response", "setting": "[5]", "value": "467 ± 54", "unit": "nA"}, {"measurement": "current response", "setting": "[6]", "value": "did not yield current responses"}, {"measurement": "peak current (Imax, mean ± SE)", "setting": "[7]", "value": "47 ± 9", "unit": "nA"}, {"measurement": "current response", "setting": "[8]", "value": "did not yield current responses"}, {"measurement": "Mean (±SE) peak current response", "setting": "[9]", "value": "371 ± 68", "unit": "nA"}, {"measurement": "peak current (Imax, mean ± SE)", "setting": "hα6(A112V) + hβ4 nAChR", "value": "110 ± 22", "unit": "nA"}, {"measurement": "current response relative to receptor with WT hβ2", "setting": "[10]; codon optimized vs. WT hβ2", "value": "~ 31 fold"}, {"measurement": "peak current (Imax, mean ± SE)", "setting": "[10]; oocytes clamped at −70 mV", "value": "469 ± 75", "unit": "nA"}, {"measurement": "Mean (±SE) peak current response", "setting": "[11]", "value": "126 ± 5", "unit": "nA"}, {"measurement": "peak current (Imax, mean ± SE)", "setting": "[12]", "value": "118 ± 33", "unit": "nA"}, {"measurement": "peak current (Imax, mean ± SE)", "setting": "[13]", "value": "66 ± 20", "unit": "nA"}, {"measurement": "peak current (Imax, mean ± SE)", "setting": "[14]", "value": "753 ± 137", "unit": "nA"}]}
